Results published in PubChem BioAssay AID330 (DTP/NCI, 2004).
Values joined by “and” are separate entries in the source; they are usually repeats but may differ in a detail not shown here. Identical values can stand only once. Toxic doses and inconclusive results are not listed. Rule for the calls: active = survival T/C of 150% or more; inactive = T/C below 125% in these data.

Test system: P388 leukemia ip, CD2F1 mice, survival T/C
Test: NCI In Vivo Anticancer Drug Screen. Data for tumor model P388 Leukemia (intraperitoneal) in CD2F1 (CDF1) mice
Conditions: endpoint: median survival time, higher = longer survival
How it was run: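 Mice carrying the transplanted tumor received test compound or vehicle. Survival was recorded in each group, and the value is the treated-group measurement divided by that of the vehicle-treated control group.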

[1] = dose: 50.0 mg/kg/injection, schedule: Q01DX005 (ip), vehicle: saline with Tween-80
[2] = dose: 100.0 mg/kg/injection, schedule: Q01DX005 (ip), vehicle: saline with Tween-80
[3] = dose: 200.0 mg/kg/injection, schedule: Q01DX005 (ip), vehicle: saline with Tween-80
[4] = dose: 50.0 mg/kg/injection, schedule: Q01DX001 (ip), vehicle: Klucel (hydroxypropylcellulose) (HPC)
[5] = dose: 100.0 mg/kg/injection, schedule: Q01DX001 (ip), vehicle: Klucel (hydroxypropylcellulose) (HPC)
[6] = dose: 50.0 mg/kg/injection, schedule: Q01DX005 (ip), vehicle: Klucel (hydroxypropylcellulose) (HPC)
[7] = dose: 100.0 mg/kg/injection, schedule: Q01DX005 (ip), vehicle: Klucel (hydroxypropylcellulose) (HPC)
[8] = dose: 200.0 mg/kg/injection, schedule: Q01DX005 (ip), vehicle: Klucel (hydroxypropylcellulose) (HPC)
[9] = dose: 25.0 mg/kg/injection, schedule: Q01DX009 (ip), vehicle: other
[10] = dose: 50.0 mg/kg/injection, schedule: Q01DX009 (ip), vehicle: other
[11] = dose: 50.0 mg/kg/injection, schedule: Q01DX009 (ip), vehicle: saline
[12] = dose: 100.0 mg/kg/injection, schedule: Q01DX009 (ip), vehicle: saline
[13] = dose: 200.0 mg/kg/injection, schedule: Q01DX009 (ip), vehicle: saline
[14] = dose: 60.0 mg/kg/injection, schedule: Q01DX005 (ip), vehicle: saline with Tween-80
[15] = dose: 120.0 mg/kg/injection, schedule: Q01DX005 (ip), vehicle: saline with Tween-80
[16] = dose: 240.0 mg/kg/injection, schedule: Q01DX005 (ip), vehicle: saline with Tween-80
[17] = dose: 6.25 mg/kg/injection, schedule: Q01DX009 (ip), vehicle: Klucel (hydroxypropylcellulose) (HPC)
[18] = dose: 12.5 mg/kg/injection, schedule: Q01DX009 (ip), vehicle: Klucel (hydroxypropylcellulose) (HPC)

Measured: T/C

COc1c2occc2c(OC(C)C(=O)O)c2c(O)cc(=O)oc12 (centres undefined)
inactive: [1] 95 % of control | [2] 101 % of control | [3] 95 % of control

OCc1cnccc1Br
inactive: dose: 60.0 mg/kg/injection, schedule: Q01DX005 (ip), vehicle: saline 99 % of control | dose: 120.0 mg/kg/injection, schedule: Q01DX005 (ip), vehicle: saline 100 % of control | dose: 240.0 mg/kg/injection, schedule: Q01DX005 (ip), vehicle: saline 99 % of control

CC(COS(C)(=O)=O)OS(C)(=O)=O (centres undefined)
inactive: [4] 98 % of control | [5] 93 % of control | dose: 200.0 mg/kg/injection, schedule: Q01DX001 (ip), vehicle: Klucel (hydroxypropylcellulose) (HPC) 101 % of control

NNC1=NCCS1
inactive: dose: 0.31 mg/kg/injection, schedule: Q01DX009 (ip), vehicle: saline with Tween-80 101 % of control | dose: 0.62 mg/kg/injection, schedule: Q01DX009 (ip), vehicle: saline with Tween-80 98 % of control | dose: 1.25 mg/kg/injection, schedule: Q01DX009 (ip), vehicle: saline with Tween-80 104 % of control

O=C(C[n+]1ccnc2ccccc21)c1ccc(Cl)cc1
inactive: [6] 95 % of control | [7] 100 % of control | [8] 106 % of control

O=C(CC(=O)c1ccc(Cl)cc1)c1ccc(Cl)cc1
inactive: dose: 50.0 mg/kg/injection, schedule: Q04DX003 (ip), vehicle: saline with Tween-80 100 % of control | dose: 100.0 mg/kg/injection, schedule: Q04DX003 (ip), vehicle: saline with Tween-80 100 % of control | dose: 200.0 mg/kg/injection, schedule: Q04DX003 (ip), vehicle: saline with Tween-80 98 % of control | dose: 400.0 mg/kg/injection, schedule: Q04DX003 (ip), vehicle: saline with Tween-80 93 % of control

CCCCCCCCCCCCCCCC(=O)N(CC#CCN(CCCN(C)C)C(=O)CCCCCCCCCCCCCCC)CCCN(C)C
inactive: [9] 95 % of control | [10] 87 % of control

C=C(Br)C(=NC(C)(C)C)Nc1ccccc1Cl
inactive: dose: 6.25 mg/kg/injection, schedule: Q01DX005 (ip), vehicle: Klucel (hydroxypropylcellulose) (HPC) 98 % of control | dose: 12.5 mg/kg/injection, schedule: Q01DX005 (ip), vehicle: Klucel (hydroxypropylcellulose) (HPC) 109 % of control | dose: 25.0 mg/kg/injection, schedule: Q01DX005 (ip), vehicle: Klucel (hydroxypropylcellulose) (HPC) 111 % of control and 120 % of control and 118 % of control | [6] 118 % of control | [7] 110 % of control

O=C(O)/C(Cl)=C(\Cl)C(=O)Nc1ccccc1C(F)(F)F
inactive: [1] 97 % of control | [2] 103 % of control

COC(=O)NC1C(C)OC(OC2C/C=C(/C)C3C=CC4C(OC5CC(OC6CC(OC7CC(O)C(O)C(C)O7)C(OC7CC(O)C(OC)C(C)O7)C(C)O6)C(O)C(C)O5)C(C)CC(C)C4C3(C)/C(O)=C3\C(=O)OC4(CC(C)C(CO)=CC4/C=C\2C)C3=O)CC1(C)[N+](=O)[O-] (centres undefined)
inactive: dose: 7.5 mg/kg/injection, schedule: Q01DX009 (ip), vehicle: saline 106 % of control | dose: 15.0 mg/kg/injection, schedule: Q01DX009 (ip), vehicle: saline 115 % of control and 122 % of control | dose: 30.0 mg/kg/injection, schedule: Q01DX009 (ip), vehicle: saline 121 % of control

COC(=O)C1=C(C(=O)OC)P2(C)(C)N(C)C(=S)N2C1(c1ccccc1)c1ccccc1
inactive: [6] 102 % of control | [7] 94 % of control | [8] 94 % of control

COc1ccc([N+](=O)[O-])c(O)c1OC
inactive: dose: 12.5 mg/kg/injection, schedule: Q01DX009 (ip), vehicle: other 94 % of control | [9] 96 % of control | [10] 97 % of control | dose: 100.0 mg/kg/injection, schedule: Q01DX009 (ip), vehicle: other 94 % of control | dose: 200.0 mg/kg/injection, schedule: Q01DX009 (ip), vehicle: other 96 % of control

c1cc2nc(N3CCNCC3)nc(N3CCOCC3)c2s1
inactive: [11] 94 % of control | [12] 97 % of control | [13] 93 % of control

N#CCCN(CCC#N)c1ccc(/C=C2\C(=O)N(c3ccc(S(=O)(=O)O)cc3)N=C2C(=O)O)cc1
inactive: [14] 102 % of control | [15] 94 % of control | [16] 105 % of control

COc1cc2c(cc1C(C)c1ccc(Br)cc1)OCO2 (centres undefined)
inactive: [1] 96 % of control | [2] 103 % of control | [3] 100 % of control

O=[N+]([O-])c1cccnc1S(=O)(=O)c1ccccn1
inactive: [17] 100 % of control | [18] 100 % of control

NC1=C(O)C(=O)C(c2cccc(O)c2)O1 (centres undefined)
inactive: [14] 103 % of control | [15] 100 % of control | [16] 103 % of control

CCCCCCCCCCCCCCCCOc1ccc(/C=N/Nc2ccccc2)cc1OC
inactive: dose: 50.0 mg/kg/injection, schedule: Q01DX009 (ip), vehicle: saline with Tween-80 88 % of control | dose: 100.0 mg/kg/injection, schedule: Q01DX009 (ip), vehicle: saline with Tween-80 93 % of control

Cn1c(=O)ccc2c(=O)c3ccccc3oc21
inactive: dose: 100.0 mg/kg/injection, schedule: Q04DX002 (ip), vehicle: saline with Tween-80 100 % of control | dose: 200.0 mg/kg/injection, schedule: Q04DX002 (ip), vehicle: saline with Tween-80 110 % of control | dose: 400.0 mg/kg/injection, schedule: Q04DX002 (ip), vehicle: saline with Tween-80 107 % of control

COc1ccc2c(c1)C(O)C(CO)C(C(=O)O)C2 (centres undefined)
inactive: [6] 106 % of control | [7] 101 % of control | [8] 101 % of control

CCOC(=O)Cn1ncnn1
inactive: dose: 100.0 mg/kg/injection, schedule: Q04DX003 (ip), vehicle: Klucel (hydroxypropylcellulose) (HPC) 103 % of control | dose: 200.0 mg/kg/injection, schedule: Q04DX003 (ip), vehicle: Klucel (hydroxypropylcellulose) (HPC) 100 % of control | dose: 400.0 mg/kg/injection, schedule: Q04DX003 (ip), vehicle: Klucel (hydroxypropylcellulose) (HPC) 102 % of control

CN1CCC2OC2C1=NC#N (centres undefined)
inactive: dose: 12.5 mg/kg/injection, schedule: Q01DX009 (ip), vehicle: saline 102 % of control | dose: 25.0 mg/kg/injection, schedule: Q01DX009 (ip), vehicle: saline 101 % of control | [11] 105 % of control | [12] 101 % of control | [13] 97 % of control

O=C1Cc2ccccc2NC(c2ccccc2)C1S(=O)(=O)c1ccccc1 (centres undefined)
inactive: [6] 102 % of control | [7] 102 % of control | [8] 101 % of control

O=C(Nc1ccc(N=C=S)cc1Cl)c1cc(Br)cc(Br)c1O
inactive: dose: 25.0 mg/kg/injection, schedule: Q01DX001 (ip), vehicle: Klucel (hydroxypropylcellulose) (HPC) 106 % of control | [4] 100 % of control | [5] 92 % of control and 95 % of control

Cc1c(C)[n+](=O)c2ccc(/C=N/N3CCOC3=O)cc2n1[O-]
inactive: [17] 106 % of control | [18] 97 % of control | dose: 25.0 mg/kg/injection, schedule: Q01DX009 (ip), vehicle: Klucel (hydroxypropylcellulose) (HPC) 102 % of control | dose: 100.0 mg/kg/injection, schedule: Q01DX009 (ip), vehicle: Klucel (hydroxypropylcellulose) (HPC) 90 % of control
